Reference: patent US9549942B2, “Composition for preventing or treating degenerative brain diseases including compound downregulating expression of BACE1 proteins” (RESEARCH & BUSINESS FOUNDATION SUNGKYUNKWAN UNIVERSITY, priority 2013, dated 2017)
Where a name gives a salt, the structure may show the parent alone.

These compounds were tested on BACE1 promoter (assay: BACE1 promoter activity, BACE1 promoter-luciferase vector, Dual-Luciferase assay). Settings: Homo sapiens, SH-SY5Y, 24 h, read-out: decrease of BACE1 promoter activity.
Assay type: cell-based
Description: A BACE1 promoter-luciferase vector was transfected to brain nerve cells (SH-SY5Y). […] A change in a BACE1 promoter activity was measured using a Dual-Luciferase assay kit.

Row | Compound | inhibition at 10 µM
1 | C=C(NC(=O)C(=C)NC(=O)c1csc(C2=N[C@@H]3c4csc(n4)[C@H]4NC(=O)c5csc(n5)[C@H]([C@](C)(O)[C@@H](C)O)NC(=O)[C@H]5CSC(=N5)/C(=C/C)NC(=O)[C@H]([C@@H](C)O)NC(=O)c5csc(n5)[C@]3(CC2)NC(=O)[C@H](C)NC(=O)C(=C)NC(=O)[C@H](C)NC(=O)[C@H]([C@@H](C)CC)N[C@@H]2C=Cc3c([C@H](C)O)cc(nc3[C@H]2O)C(=O)O[C@@H]4C)n1)C(N)=O [thiostrepton] | ≥ 50%
2 | COc1ccc2c(c1)[nH]c1c(C)nccc12 [harmine hydrochloride] | ≥ 50%
3 | COc1cc2c(c(OC)c1OC)-c1ccc(OC)c(=O)cc1[C@@H](NC(C)=O)CC2 [colchicine] | ≥ 50%

Same assay, conditions: Homo sapiens; SH-SY5Y transfected with BACE1 promoter-luciferase vector, 10 μM for 24 hours; read-out: decrease of BACE1 promoter activity

Row | Compound | inhibition at 10 µM
4 | CCN(CC)C(=O)/C(C#N)=C/c1cc(O)c(O)c([N+](=O)[O-])c1 [entacapone] | ≥ 50%
5 | CC[C@@]1([C@@H]2O[C@@H]([C@H]3O[C@@](O)(CO)[C@H](C)C[C@@H]3C)C[C@@H]2C)CC[C@H]([C@]2(C)CC[C@]3(C[C@H](O)[C@@H](C)[C@@H]([C@@H](C)[C@@H](OC)[C@H](C)C(=O)O)O3)O2)O1 [monensin sodium salt] | ≥ 50%
6 | CC1(C)O[C@@H]2C[C@H]3[C@@H]4C[C@H](F)C5=CC(=O)C=C[C@]5(C)[C@H]4[C@@H](O)C[C@]3(C)[C@]2(C(=O)CO)O1 [flunisolide] | ≥ 50%
7 | Cn1cnc([N+](=O)[O-])c1Sc1ncnc2nc[nH]c12 [azathioprine] | ≥ 50%
8 | CC(C)=CCC/C(C)=C/CC/C(C)=C/CO [farnesol] | ≥ 50%
9 | CC[C@H](c1ccc(O)cc1)[C@@H](CC)c1ccc(O)cc1 [hexestrol] | ≥ 50%
10 | O=C(c1ccc(OCCN2CCCCC2)cc1)c1c(-c2ccc(O)cc2)sc2cc(O)ccc12 [raloxifene hydrochloride] | ≥ 50%
11 | COc1cc(C(=O)NCc2ccc(OCCN(C)C)cc2)cc(OC)c1OC [trimethobenzamide hydrochloride] | ≥ 50%
12 | CCCN(CCC)S(=O)(=O)c1ccc(C(=O)O)cc1 [probenecid] | ≥ 50%
13 | Nc1ccc(S(=O)(=O)Nc2cnc3ccccc3n2)cc1 [sulfaquinoxaline sodium salt] | ≥ 50%
14 | CC[C@@]1(O)C(=O)OCc2c1cc1n(c2=O)Cc2cc3c(CN(C)C)c(O)ccc3nc2-1 [topotecan] | ≥ 50%
15 | COC(=O)Nc1nc2cc(Sc3ccccc3)ccc2[nH]1 [fenbendazole] | ≥ 50%
16 | COC(=O)Nc1nc2cc(C(=O)c3ccccc3)ccc2[nH]1 [mebendazole] | ≥ 50%
17 | NC1CCN(c2nc3c(cc2F)c(=O)c(C(=O)O)cn3-c2ccc(F)cc2F)C1 (stereo not drawn) [tosufloxacin hydrochloride] | ≥ 50%
18 | CCCOc1ccccc1-c1nc2nn[nH]c2c(=O)[nH]1 [zaprinast] | ≥ 50%
19 | O=C1Nc2ccc(Cl)cc2[C@@](C#CC2CC2)(C(F)(F)F)O1 [efavirenz] | ≥ 50%
20 | Clc1cnccn1 [2-chloropyrazine] | ≥ 50%
21 | CCN(CCCCOC(=O)c1ccc(OC)c(OC)c1)C(C)Cc1ccc(OC)cc1 (stereo not drawn) [mebeverine hydrochloride] | ≥ 50%

Each compound was assayed on BACE1 proteins (assay: Amount of expression of BACE1 proteins in brain nerve cells (Western blot)). Settings: SH-SY5Y cells, treated 24 hours at 0.001, 0.01 and 0.1 μM, actin control.
Assay type: cell-based, human
Description: As brain nerve cells, human neuroblastoma cells SH-SY5Y were used. […] The SH-SY5Y cells were plated at 5×10^5 cells/well into a 6-well plate. […] Then, the amount of expression of BACE1 proteins was determined by Western blot. Actin was used throughout as a control.

Row | Compound | amount of expression of BACE1 proteins
22 | CC(C)=CCC/C(C)=C/CC/C(C)=C/CO [farnesol] | decreased at 0.01 μM and 0.1 μM

Same assay, conditions: SH-SY5Y cells, treated 24 hours at 0.625, 1.25, 2.5, 5 and 10 μM, actin control

Row | Compound | amount of expression of BACE1 proteins
23 | COC(=O)Nc1nc2cc(Sc3ccccc3)ccc2[nH]1 [fenbendazole] | decreased at 0.625 μM to 10 μM
24 | COC(=O)Nc1nc2cc(C(=O)c3ccccc3)ccc2[nH]1 [mebendazole] | decreased at 0.625 μM to 10 μM
